The assay addresses T1, GPR119 receptor (Mesocricetus auratus, UniProt A0A1U8CD06).
T1 construct: which endogenously express the GPR119 receptor; host or cells: HIT-T15 hamster pancreatic islet cells
T1 sequence (A0A1U8CD06 1-334): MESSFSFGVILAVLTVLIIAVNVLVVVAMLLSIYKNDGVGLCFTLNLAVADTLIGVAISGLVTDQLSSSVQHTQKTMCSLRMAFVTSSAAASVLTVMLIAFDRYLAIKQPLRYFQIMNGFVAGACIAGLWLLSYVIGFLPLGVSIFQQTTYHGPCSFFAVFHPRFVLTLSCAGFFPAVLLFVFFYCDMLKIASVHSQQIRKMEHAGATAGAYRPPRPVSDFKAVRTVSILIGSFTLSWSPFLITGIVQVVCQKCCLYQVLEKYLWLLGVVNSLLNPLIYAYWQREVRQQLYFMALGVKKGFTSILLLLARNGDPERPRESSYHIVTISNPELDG
Kind of assay: cAMP assay in HIT-T15 hamster pancreatic islet cells (functional agonist activity). It is filed as cell-based. To be noted: HIT-T15 cells endogenously expressing GPR119; 30 min at 25° C.; intracellular cAMP. Summed up:
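HIT-T15 cells (endogenous GPR119), 9000/well, exposed to agonist 30 min at 25° C with 0.5 mM IBMX and 0.5 mg/ml BSA. Lysate cAMP measured by chemiluminescent competitive immunoassay; EC50 from curve fit.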
On the technique in general: Changes in cAMP serve as a functional read-out for many G protein-coupled receptors.
As to `C[S+]([O-])c1ccc(Oc2ncnc3c2cnn3C2CCN(C(=O)OC(C)(C)C)CC2)cc1` (stereo not shown) [Example 58, 4-[4-(4-Methanesulfinyl-phenoxy)-pyrazolo[3,4-d]pyrimidin-1-yl]-piperidine-1-carboxylic acid tert-butyl ester], the EC50 (in general, the concentration needed to bring the measured effect to its halfway point) was found to be 0.42 µM.
With `N#Cc1ccccc1Oc1ncnc2c1cnn2C1CCN(C(=O)OC2CCCC2)CC1` [Example 118, 4-[4-(2-Cyano-phenoxy)-pyrazolo[3,4-d]pyrimidin-1-yl]-piperidine-1-carboxylic acid cyclopentyl ester], a half-maximal response (EC50) required 0.34 µM.
For the compound `Cc1nc(-n2cncn2)ccc1Nc1ncnc2c1cnn2C1CCN(C(=O)OC(C)(C)C)CC1` [Example 9, 4-[4-(2-Methyl-6-[1,2,4]triazol-1-yl-pyridin-3-ylamino)-pyrazolo[3,4-d]pyrimidin-1-yl]-piperidine-1-carboxylic acid tert-butyl ester], the EC50 is 2.4 µM.
The value for `CC(C)(C)OC(=O)N1CCC(n2ncc3c(Oc4ccc(OC(F)(F)F)cc4)ncnc32)CC1` [Example 42, 4-[4-(4-Trifluoromethoxy-phenoxy)-pyrazolo[3,4-d]pyrimidin-1-yl]-piperidine-1-carboxylic acid tert-butyl ester] was 1.8 µM; that for `CS(=O)(=O)c1ccc(Oc2ncnc3c2cnn3C2CCN(Cc3ccc(Cl)cc3)CC2)cc1` [Example 160, 1-[1-(4-Chloro-benzyl)-piperidin-4-yl]-4-(4-methanesulfonyl-phenoxy)-1H-pyrazolo[3,4-d]pyrimidine] was 0.57 µM.
The value for `Cc1ncccc1Oc1ncnc2c1cnn2C1CCN(C(=O)OC2CCCC2)CC1` [Example 121, 4-[4-(2-Methyl-pyridin-3-yloxy)-pyrazolo[3,4-d]pyrimidin-1-yl]-piperidine-1-carboxylic acid cyclopentyl ester] was 0.26 µM; that for `CC(C)OC(=O)N1CCC(n2ncc3c(Oc4ccccc4)ncnc32)CC1` [Example 15, 4-(4-Phenoxy-pyrazolo[3,4-d]pyrimidin-1-yl)-piperidine-1-carboxylic acid isopropyl ester] was 2 µM.
As for `CS(=O)(=O)c1ccc(Oc2ncnc3c2cnn3C2CCN(C(=O)C(F)(F)F)CC2)cc1` [Example 148, 2,2,2-Trifluoro-1-{4-[4-(4-methanesulfonyl-phenoxy)-pyrazolo[3,4-d]pyrimidin-1-yl]-piperidin-1-yl}-ethanone], the figure is 1.7 µM; as for `Cc1ncccc1Oc1ncnc2c1cnn2C1CCN(C(=O)OCc2ccccc2)CC1` [Example 124, 4-[4-(2-Methyl-pyridin-3-yloxy)-pyrazolo[3,4-d]pyrimidin-1-yl]-piperidine-1-carboxylic acid benzyl ester], 0.24 µM; as for `CS(=O)(=O)c1ccc(Oc2ncnc3c2cnn3C2CCN(Cc3ccc(C(F)(F)F)cc3)CC2)cc1` [Example 161, 4-(4-Methanesulfonyl-phenoxy)-1-[1-(4-trifluoromethyl-benzyl)-piperidin-4-yl]-1H-pyrazolo[3,4-d]pyrimidine], 0.036 µM.
Compound `CC(C)CCC(=O)N1CCC(n2ncc3c(Oc4ccc(S(C)(=O)=O)cc4)ncnc32)CC1` [Example 143, 1-{4-[4-(4-Methanesulfonyl-phenoxy)-pyrazolo[3,4-d]pyrimidin-1-yl]-piperidin-1-yl}-4-methylpentan-1-one] yielded an EC50 of 0.44 µM.
The value for `CC(C)(C)OC(=O)N1CCC(n2ncc3c(Oc4cccc5ncccc45)ncnc32)CC1` [Example 71, 4-[4-(Quinolin-5-yloxy)-pyrazolo[3,4-d]pyrimidin-1-yl]-piperidine-1-carboxylic acid tert-butyl ester] was 0.75 µM; that for `CC(C)(C)OC(=O)N1CCC(n2ncc3c(Nc4cc(F)c(F)cc4F)ncnc32)CC1` [Example 4, 4-[4-(2,4,5-Trifluoro-phenylamino)-pyrazolo[3,4-d]pyrimidin-1-yl]-piperidine-1-carboxylic acid tert-butyl ester] was 0.53 µM.
